Data from DBAASP.
Converted amounts (≈) assume the structure as drawn. “And” between values parts separate entries of the source, which are not always exact repeats. Equal values may be shown once. Each block holds one molecule with its values, some of them ahead of it.

Legend:
Test in all cases: ≥ marks a high value that may be exact or a test limit, other limits are often not marked, values filed in µg/mL are converted to µM
[1] = test system: Staphylococcus aureus ATCC 29213
Salmonella sp. = test system: Salmonella sp.
[2] = test system: Escherichia coli ATCC 25922
[3] = test system: Staphylococcus aureus ATCC 43300
Escherichia coli = test system: Escherichia coli
Yersinia enterocolitica = test system: Yersinia enterocolitica
[4] = test system: Salmonella enterica subsp. enterica serovar Enteritidis
[5] = test system: Pseudomonas aeruginosa TRPA 111
[6] = test system: Klebsiella pneumoniae KP4
[7] = test system: Acinetobacter baumannii AB3
[8] = test system: Pseudomonas aeruginosa PAO1
[9] = test system: Klebsiella pneumoniae KP1
[10] = test system: Klebsiella pneumoniae KP2
[11] = test system: Pseudomonas aeruginosa TRPA 108
[12] = test system: Staphylococcus aureus USA 300
[13] = test system: Klebsiella pneumoniae KP3
[14] = test system: Acinetobacter baumannii AB1
[15] = test system: Staphylococcus aureus USA 100
[16] = test system: Staphylococcus aureus 4003
[17] = test system: Acinetobacter baumannii AB2
[18] = test system: Acinetobacter baumannii ATCC 19606
[19] = test system: Klebsiella pneumoniae ATCC 700603
[20] = test system: Pseudomonas aeruginosa ATCC 27853
[21] = test system: Candida albicans ATCC 90028
[22] = test system: Cryptococcus neoformans ATCC 208821
[23] = test system: Pseudomonas aeruginosa ATCC 27853(RifR)
[24] = test system: Escherichia coli ATCC 25922(RifR)
[25] = test system: Staphylococcus aureus 113
[26] = test system: Acinetobacter baumannii ATCC 19606(CipR)
Escherichia coli 780 = test system: Escherichia coli 780
Escherichia coli 804 = test system: Escherichia coli 804
[27] = test system: Acinetobacter baumannii ATCC 19606(GenR)
[28] = test system: Pseudomonas aeruginosa ATCC 27853(CipR)
[29] = test system: Klebsiella pneumoniae ATCC 700603(GenR)
[30] = test system: Acinetobacter baumannii ATCC 19606(RifR)
[31] = test system: Klebsiella pneumoniae ATCC 700603(ImiR)
[32] = test system: Acinetobacter baumannii ATCC 19606(ImiR)
[33] = test system: Acinetobacter baumannii 9931
[34] = test system: Klebsiella pneumoniae ATCC 700603(RifR)
[35] = test system: Escherichia coli ATCC 25922(CipR)
[36] = test system: Pseudomonas aeruginosa ATCC 27853(ImiR)
[37] = test system: Pseudomonas aeruginosa 50
Staphylococcus aureus 75 = test system: Staphylococcus aureus 75
[38] = test system: Klebsiella pneumoniae ATCC 700603(CipR)
[39] = test system: Staphylococcus epidermidis ATCC 12228
[40] = test system: Escherichia coli ATCC 25922(ImiR)
[41] = test system: Escherichia coli ATCC 25922(GenR)
[42] = test system: Pseudomonas aeruginosa ATCC 9027
[43] = test system: Pseudomonas aeruginosa ATCC 27853(GenR)
[44] = test system: Bacillus subtilis ATCC 23857

MIC [1]: > 37.7 µM
MIC (Salmonella sp.): ≥ 37.7 µM
MIC [2]: > 37.7 µM
MIC [3]: > 37.7 µM
MIC (Escherichia coli): > 37.7 µM
MIC (Yersinia enterocolitica): ≥ 37.7 µM
MIC [4]: ≥ 37.7 µM
Compound: CC[C@H](C)[C@H](NC(=O)[C@H](CCCCN)NC(=O)[C@@H](N)CCCN=C(N)N)C(=O)N[C@@H](CCCN=C(N)N)C(=O)N[C@@H](CCCN=C(N)N)C(=O)N[C@@H](CCCCN)C(=O)N[C@@H](Cc1c[nH]c2ccccc12)C(=O)N[C@@H](CCCCN)C(=O)N[C@@H](CCCN=C(N)N)C(N)=O [RKIRRKWKR]

MIC [5]: 0.882 µM (≈ 3 µg/mL)
MIC [6]: 4.71 µM (≈ 16 µg/mL)
MIC [7]: 1.76 µM (≈ 6 µg/mL)
MIC [8]: 1.76 µM and 3.5 µM
MIC [9]: 2.94 µM (≈ 10 µg/mL)
MIC [10]: 9.41 µM (≈ 32 µg/mL)
MIC [11]: 1.18 µM (≈ 4 µg/mL)
MIC [12]: 1.76 µM and 3.2 µM
MIC [13]: 2.94 µM (≈ 10 µg/mL)
MIC [14]: 1.47 µM (≈ 5 µg/mL)
MIC [15]: 1.76 µM (≈ 6 µg/mL)
MIC [16]: 1.47 µM (≈ 5 µg/mL)
MIC [17]: 3.24 µM (≈ 11 µg/mL)
Compound: CC(C)[C@H](NC(=O)[C@H](Cc1c[nH]c2ccccc12)NC(=O)[C@H](CCCN=C(N)N)NC(=O)[C@H](CCCN=C(N)N)NC(=O)[C@@H](NC(=O)[C@@H](NC(=O)[C@H](CCCN=C(N)N)NC(=O)[C@@H](NC(=O)[C@@H](NC(=O)[C@H](CCCN=C(N)N)NC(=O)[C@H](CCCN=C(N)N)NC(=O)[C@@H](NC(=O)[C@H](Cc1c[nH]c2ccccc12)NC(=O)[C@H](CCCN=C(N)N)NC(=O)[C@H](CCCN=C(N)N)NC(=O)[C@@H](NC(=O)[C@H](CCCN=C(N)N)NC(=O)[C@H](CCCN=C(N)N)NC(=O)[C@@H](NC(=O)[C@H](Cc1c[nH]c2ccccc12)NC(=O)[C@H](CCCN=C(N)N)NC(=O)[C@@H](N)CCCN=C(N)N)C(C)C)C(C)C)C(C)C)C(C)C)C(C)C)C(C)C)C(C)C)C(=O)N[C@@H](CCCN=C(N)N)C(=O)N[C@@H](CCCN=C(N)N)C(=O)O [RRWVRRVRRWVRRVVRVVRRWVRR]

MIC [18]: > 11.9 µM
MIC [2]: > 11.9 µM
MIC [19]: > 11.9 µM
MIC [20]: > 11.9 µM
MIC [3]: > 11.9 µM
MIC [21]: 11.9 µM (≈ 32 µg/mL)
MIC [22]: 1.49 µM (≈ 4 µg/mL)
Compound: NC(=O)CC[C@H](NC(=O)[C@H](CCCN=C(N)N)NC(=O)[C@H](CCCN=C(N)N)NC(=O)[C@H](CS)NC(=O)[C@H](CCC(N)=O)NC(=O)[C@H](Cc1cnc[nH]1)NC(=O)[C@H](CO)NC(=O)[C@H](CCCN=C(N)N)NC(=O)[C@H](Cc1ccccc1)NC(=O)[C@H](Cc1cnc[nH]1)NC(=O)[C@H](CCCN=C(N)N)NC(=O)[C@H](Cc1cnc[nH]1)NC(=O)[C@H](Cc1cnc[nH]1)NC(=O)[C@@H](N)CO)C(=O)N[C@@H](CCCN=C(N)N)C(=O)N[C@@H](CO)C(=O)N[C@@H](CC(N)=O)C(=O)N[C@@H](CO)C(=O)N[C@@H](CS)C(=O)N[C@@H](CC(=O)O)C(=O)N[C@@H](CCCN=C(N)N)C(=O)O [SHHRHFRSHQCRRQRSNSCDR]

MIC [23]: 4 µM (≈ 7.6 µg/mL)
MIC [18]: 8 µM (≈ 15.2 µg/mL)
MIC [24]: 16 µM (≈ 30.4 µg/mL)
MIC [1]: 4 µM (≈ 7.6 µg/mL)
MIC [25]: 2 µM (≈ 3.8 µg/mL)
MIC [26]: 16 µM (≈ 30.4 µg/mL)
MIC (Escherichia coli 780): 8 µM (≈ 15.2 µg/mL)
MIC (Escherichia coli 804): 16 µM (≈ 30.4 µg/mL)
MIC [27]: 16 µM (≈ 30.4 µg/mL)
MIC [28]: 4 µM (≈ 7.6 µg/mL)
MIC [29]: ≥ 32 µM
MIC [30]: 8 µM (≈ 15.2 µg/mL)
MIC [19]: 16 µM (≈ 30.4 µg/mL)
MIC [31]: 16 µM (≈ 30.4 µg/mL)
MIC [20]: 4 µM (≈ 7.6 µg/mL)
MIC [32]: 16 µM (≈ 30.4 µg/mL)
MIC [33]: 8 µM (≈ 15.2 µg/mL)
MIC [34]: 16 µM (≈ 30.4 µg/mL)
MIC [35]: 8 µM (≈ 15.2 µg/mL)
MIC [36]: 8 µM (≈ 15.2 µg/mL)
MIC [37]: 4 µM (≈ 7.6 µg/mL)
MIC (Staphylococcus aureus 75): 4 µM (≈ 7.6 µg/mL)
MIC [38]: ≥ 32 µM
MIC [39]: 4 µM (≈ 7.6 µg/mL)
MIC [40]: 16 µM (≈ 30.4 µg/mL)
MIC [41]: 8 µM (≈ 15.2 µg/mL)
MIC [42]: 4 µM (≈ 7.6 µg/mL)
MIC [43]: ≥ 32 µM
MIC [44]: 2 µM (≈ 3.8 µg/mL)
Compound: NCCCC[C@H](NC(=O)[C@H](CCCN=C(N)N)NC(=O)[C@H](Cc1c[nH]c2ccccc12)NC(=O)[C@H](CCCCN)NC(=O)[C@H](CCCN=C(N)N)NC(=O)[C@H](Cc1c[nH]c2ccccc12)NC(=O)[C@H](CCCCN)NC(=O)[C@H](CCCN=C(N)N)NC(=O)[C@H](Cc1c[nH]c2ccccc12)NC(=O)[C@H](CCCCN)NC(=O)[C@H](CCCN=C(N)N)NC(=O)[C@@H](N)Cc1c[nH]c2ccccc12)C(N)=O [WRKWRKWRKWRK]
